Laboratory results as given in patent US20240325369A1 (priority 2021, published 2024).
Several values for one entry are separate records, joined by “and”; a condition that tells them apart may be missing. Equal entries are not always repeated. Where two headings read alike, the source gives them in different places.

Tested on: metastatic castration-resistant prostate cancer (mCRPC) with DNA-repair anomalies
Conditions: for CTC Response (CTC = 0 at week 8), % of subjects / CTC Response (CTC = 0 at week 8), number of subjects: ITT with baseline CTC >0 (N=131)
Method: The planned sample size was approximately 120 subjects with measurable disease who were biomarker-positive (approximately 75 subjects with DNA repair anomalies in BRCA [BRCA1 or BRCA2] and approximately 45 subjects with biallelic DNA-repair anomalies in non-BRCA [ATM, FANCA, PALB2, CHEK2, BRIP1, or HDAC2]).
Efficacy objectives were evaluated for subjects meeting the biomarker selection criteria described in the protocol. All subjects were monitored for safety during the study period, and up to 30 days after the last dose of study drug. Treatment continued until disease progression, unacceptable toxicity, death, or termination of the study by the sponsor.
Diagnosis and Main Criteria for Inclusion: The target population consisted of male subjects over the age of 18 years with mCRPC and DNA-repair anomalies (biallelic mutations and germline pathogenic mutations only for BRCA1 or BRCA2 mutations) who had received at least 1 prior taxane-based chemotherapy and at least 1 prior AR targeted therapy (second-generation or later). Subjects were asked to provide a tumor tissue sample (archival or recently collected, if available), and a blood sample for analysis of DNA-repair anomalies using a sponsor-validated assay.
Criteria for Evaluation: Efficacy assessments included chest, abdomen, and pelvis CT or MRI scans and whole-body bone scans (^99mTc) to evaluate objective response and disease progression.
The primary endpoint was ORR and summarized for the BRCA analysis set along with the 95% 2-sided exact CI. In addition, the counts and percentage of subjects in each response category (CR. PR, etc.) were tabulated. ORR in non-BRCA subjects was analyzed in the same way.
Descriptive summaries of CTC response were generated for BRCA and non-BRCA analysis sets, measurable and non-measurable subgroups and tabulated with its 2-sided 95% exact CI. Waterfall plots of percent change in CTC were also presented, showing the percentage change in CTC counts from baseline to 8 weeks, as well as maximal CTC count declines. All time to event secondary endpoints were evaluated using Kaplan-Meier method for BRCA and non-BRCA analysis sets. Median time to event and the corresponding 95% CI were provided. Descriptive summaries were provided for BRCA and non-BRCA analysis sets.
Time to degradation was determined using the following meaningful change threshold values: FACT-P Total (10-point reduction from baseline), EQ-5D-5L Index (0.09-point reduction from baseline). EQ-5D-5L VAS (10-point reduction from baseline), and BPI SF worst pain intensity item (30% reduction from baseline).
The primary endpoint was ORR, defined as the proportion of subjects with BRCA DNA-repair anomalies and measurable disease whose best response was either CR or PR as defined by RECIST 1.1 (Eisenhauer et al 2009) and who had no evidence of bone progression according to the PCWG3 criteria (Scher et al 2016).
ORR final analysis was performed approximately 6 months from Cycle 1 Day 1 of the last subject with a BRCA DNA-repair anomaly and measurable disease. Objective response as determined by investigator assessment was considered as the primary analysis.
Subjects who discontinued the study without a response assessment were considered as non-responders in the analysis. The objective response rate was calculated and its 2-sided 95% exact CI presented. In addition, the counts and percentage of subjects in each response category (CR, PR, etc.) were tabulated.
The following analyses of CTC response were performed for BRCA and non-BRCA analysis sets, measurable and non-measurable subgroups: • Descriptive summaries • CTC response rate was tabulated with its 2-sided 95% exact CI
All time to event secondary endpoints were evaluated using Kaplan-Meier method for BRCA and non-BRCA analysis sets. Median time to event and the corresponding 95% CI were provided. Descriptive summaries were provided for BRCA and non-BRCA analysis sets.

[1] = BRCA, ITT (N=142), Kaplan-Meier, 300 mg once daily
[2] = BRCA, 300 mg once daily, listed as niraparib
[3] = BRCA, measurable ITT (N=76), 300 mg once daily
[4] = BRCA, measurable ITT responders (N=26), 300 mg once daily
[5] = BRCA, measurable ITT responders (N=26), Kaplan-Meier, 300 mg once daily
[6] = BRCA, patients with baseline CTC ≥5 (n=117), 300 mg once daily
[7] = NON-BRCA, ITT (N=81), 300 mg once daily
[8] = NON-BRCA, measurable ITT responders (N=5), 300 mg once daily
[9] = NON-BRCA, measurable ITT responders (N=5), Kaplan-Meier, 300 mg once daily
[10] = Non-BRCA (n = 81), 300 mg once daily
[11] = Non-BRCA, patients with baseline CTC ≥5 (n=60), 300 mg once daily

NC(=O)c1cccc2cn(-c3ccc([C@@H]4CCCNC4)cc3)nc12 [Niraparib, 2-[4-[(3S)-piperidin-3-yl]phenyl]-2H-indazole-7-carboxamide]
Time to PSA progression: time to event, Median [1]: 5.13 months
Time to radiographic progression: time to event, 25th percentile [1]: 4.76 months
Time to radiographic progression: time to event, 75th percentile [1]: 11.63 months
Time to symptomatic skeletal event (SSE): time to event, Median [1]: 13.80 months
Time to symptomatic skeletal event: time to event, 25th percentile [1]: 7.52 months
rPFS: time to event, 25th percentile [1]: 4.44 months
rPFS: time to event, 75th percentile [1]: 11.56 months
CTC Response (CTC = 0 at week 8), % of subjects (BRCA, 300 mg once daily): (23.7%)
CTC Response (CTC = 0 at week 8), number of subjects (BRCA, 300 mg once daily): 31
CTC Response (CTC = 0 at week 8), % of subjects [2]: (23.7) %
CTC Response (CTC = 0 at week 8), number of subjects [2]: 31/131
DOR, median (range) (BRCA, as printed in Table 13, 300 mg once daily): 6.28 mo
Best Overall Response: Complete Response (CR), % of subjects [3]: 2.6%
Best Overall Response: Complete Response (CR), number of subjects [3]: 2
Best Overall Response: Not Available (NA), % of subjects [3]: 9.2%
Best Overall Response: Not Available (NA), number of subjects [3]: 7
Best Overall Response: Partial Response (PR), % of subjects [3]: 31.6%
Best Overall Response: Partial Response (PR), number of subjects [3]: 24
Best Overall Response: Progressive Disease (PD), % of subjects [3]: 21.1%
Best Overall Response: Progressive Disease (PD), number of subjects [3]: 16
Best Overall Response: Stable Disease (SD), % of subjects [3]: 35.5%
Best Overall Response: Stable Disease (SD), number of subjects [3]: 27
ORR (objective response rate, RECIST 1.1, no bone progression per PCWG3), % of subjects [3]: 34.2%
ORR (objective response rate, RECIST 1.1, no bone progression per PCWG3), number of subjects [3]: 26
Objective response confirmed: Complete Response (CR), % of subjects [3]: 2.6%
Objective response confirmed: Complete Response (CR), number of subjects [3]: 2
Objective response confirmed: Partial Response (PR), % of subjects [3]: 31.6%
Objective response confirmed: Partial Response (PR), number of subjects [3]: 24
Duration of objective response: 6-month event-free rate [4]: 0.464
Duration of objective response: 12-month event-free rate [4]: 0.000
Duration of objective response: 18-month event-free rate [4]: 0.000
Duration of objective response: 24-month event-free rate [4]: 0.000
Duration of objective response: Censored, % of subjects [4]: (23.1%)
Duration of objective response: Censored, number of subjects [4]: 6
Duration of objective response: Event, % of subjects [4]: (76.9%)
Duration of objective response: Event, number of subjects [4]: 20
Duration of objective response: time to event, 25th percentile [5]: 3.75 months
Duration of objective response: time to event, 75th percentile [5]: 7.20 months
Duration of objective response: time to event, Median [5]: 5.55 months
CTC conversion (CTC count ≥5/7.5 mL blood at baseline to <5/7.5 mL blood at nadir), % of subjects [6]: 47.0%
CTC conversion (CTC count ≥5/7.5 mL blood at baseline to <5/7.5 mL blood at nadir), number of subjects [6]: 55
Time to PSA progression: 12-month event-free rate [7]: 0.000
Time to PSA progression: 18-month event-free rate [7]: 0.000
Duration of objective response: 6-month event-free rate [8]: 0.500
Duration of objective response: 18-month event-free rate [8]: 0.000
Duration of objective response: 24-month event-free rate [8]: 0.000
Duration of objective response: Censored, % of subjects [8]: (20.0%)
Duration of objective response: Censored, number of subjects [8]: 1
Duration of objective response: Event, % of subjects [8]: (80.0%)
Duration of objective response: Event, number of subjects [8]: 4
Duration of objective response: time to event, 25th percentile [9]: 2.96 months
Duration of objective response: time to event, 75th percentile [9]: 6.95 months
Duration of objective response: time to event, Median [9]: 5.16 months
CRR (composite response rate), % of subjects [10]: 14.8%
CRR (composite response rate), number of subjects [10]: 12
PSA50 (≥50% decline in prostate-specific antigen), % of subjects [10]: 4.9%
PSA50 (≥50% decline in prostate-specific antigen), number of subjects [10]: 4
CTC conversion (CTC count ≥5/7.5 mL blood at baseline to <5/7.5 mL blood at nadir), % of subjects [11]: 15.0%
CTC conversion (CTC count ≥5/7.5 mL blood at baseline to <5/7.5 mL blood at nadir), number of subjects [11]: 9
Best Overall Response: Complete Response (CR), number of subjects (in vivo): 0
Best Overall Response: Not Available (NA), % of subjects (in vivo): (17.0%)
Best Overall Response: Not Available (NA), number of subjects (in vivo): 8
Best Overall Response: Partial Response (PR), % of subjects (in vivo): (10.6%)
Best Overall Response: Partial Response (PR), number of subjects (in vivo): 5
Best Overall Response: Progressive Disease (PD), % of subjects (in vivo): (31.9%)
Best Overall Response: Progressive Disease (PD), number of subjects (in vivo): 15
Best Overall Response: Stable Disease (SD), % of subjects (in vivo): (40.4%)
Best Overall Response: Stable Disease (SD), number of subjects (in vivo): 19
Duration of objective response: 12-month event-free rate (in vivo): 0.000
Objective response confirmed: Complete Response (CR), number of subjects (in vivo): 0
Objective response confirmed: Partial Response (PR), % of subjects (in vivo): 5 (10.6%)
Objective response confirmed: Partial Response (PR), number of subjects (in vivo): 5 (10.6%)
Overall survival: 6-month event-free rate (in vivo): 0.841 and 0.709 and 0.793
Overall survival: 12-month event-free rate (in vivo): 0.564 and 0.413 and 0.508
Overall survival: 18-month event-free rate (in vivo): 0.334 and 0.198 and 0.278
Overall survival: 24-month event-free rate (in vivo): 0.152 and 0.111 and 0.136
Overall survival: time to event, 25th percentile (in vivo): 8.31 months and 4.86 months and 7.16 months
Overall survival: time to event, 75th percentile (in vivo): 19.52 months and 16.53 months and 19.42 months
Time to PSA progression: 6-month event-free rate (in vivo): 0.144
Time to PSA progression: 24-month event-free rate (in vivo): 0.000
Time to PSA progression: Censored, % of subjects (in vivo): (51.9%)
Time to PSA progression: Censored, number of subjects (in vivo): 57 and 42
Time to PSA progression: Event, % of subjects (in vivo): (48.1%)
Time to PSA progression: time to event, 25th percentile (in vivo): 2.79 months
Time to PSA progression: time to event, 75th percentile (in vivo): 4.63 months and 8.31 months
Time to PSA progression: time to event, Median (in vivo): 3.65 months
Time to radiographic progression: 6-month event-free rate (in vivo): 0.299
Time to radiographic progression: Censored, % of subjects (in vivo): (34.6%)
Time to radiographic progression: Censored, number of subjects (in vivo): 28
Time to radiographic progression: Event, number of subjects (in vivo): 53
Time to radiographic progression: time to event, 25th percentile (in vivo): 1.87 months
Time to radiographic progression: time to event, 75th percentile (in vivo): 8.11 months
Time to symptomatic skeletal event (SSE): time to event, Median (in vivo): 10.35 months
Time to symptomatic skeletal event: 6-month event-free rate (in vivo): 0.792
Time to symptomatic skeletal event: 12-month event-free rate (in vivo): 0.379
Time to symptomatic skeletal event: 18-month event-free rate (in vivo): 0.190
Time to symptomatic skeletal event: Censored, % of subjects (in vivo): (76.5%)
Time to symptomatic skeletal event: Censored, number of subjects (in vivo): 62
Time to symptomatic skeletal event: time to event, 25th percentile (in vivo): 6.51 months
Time to symptomatic skeletal event: time to event, 75th percentile (in vivo): 15.54 months
rPFS: 6-month event-free rate (in vivo): 0.289
rPFS: Censored, % of subjects (in vivo): (29.6%)
rPFS: Censored, number of subjects (in vivo): 24
rPFS: Event, % of subjects (in vivo): (70.4%)
rPFS: Event, number of subjects (in vivo): 57
rPFS: time to event, 25th percentile (in vivo): 1.87 months
rPFS: time to event, 75th percentile (in vivo): 6.47 months
